pIC50: −log10 of the molar value. Where a name gives a salt, the structure may show the parent alone.

The target in the first experiment is T1, mGluR5 receptor (Sus scrofa, UniProt I3LUI7).
T1 construct: from tissue; host or cells: pig brain halves without medulla, cerebellum and pons
T1 sequence (I3LUI7 19-1212): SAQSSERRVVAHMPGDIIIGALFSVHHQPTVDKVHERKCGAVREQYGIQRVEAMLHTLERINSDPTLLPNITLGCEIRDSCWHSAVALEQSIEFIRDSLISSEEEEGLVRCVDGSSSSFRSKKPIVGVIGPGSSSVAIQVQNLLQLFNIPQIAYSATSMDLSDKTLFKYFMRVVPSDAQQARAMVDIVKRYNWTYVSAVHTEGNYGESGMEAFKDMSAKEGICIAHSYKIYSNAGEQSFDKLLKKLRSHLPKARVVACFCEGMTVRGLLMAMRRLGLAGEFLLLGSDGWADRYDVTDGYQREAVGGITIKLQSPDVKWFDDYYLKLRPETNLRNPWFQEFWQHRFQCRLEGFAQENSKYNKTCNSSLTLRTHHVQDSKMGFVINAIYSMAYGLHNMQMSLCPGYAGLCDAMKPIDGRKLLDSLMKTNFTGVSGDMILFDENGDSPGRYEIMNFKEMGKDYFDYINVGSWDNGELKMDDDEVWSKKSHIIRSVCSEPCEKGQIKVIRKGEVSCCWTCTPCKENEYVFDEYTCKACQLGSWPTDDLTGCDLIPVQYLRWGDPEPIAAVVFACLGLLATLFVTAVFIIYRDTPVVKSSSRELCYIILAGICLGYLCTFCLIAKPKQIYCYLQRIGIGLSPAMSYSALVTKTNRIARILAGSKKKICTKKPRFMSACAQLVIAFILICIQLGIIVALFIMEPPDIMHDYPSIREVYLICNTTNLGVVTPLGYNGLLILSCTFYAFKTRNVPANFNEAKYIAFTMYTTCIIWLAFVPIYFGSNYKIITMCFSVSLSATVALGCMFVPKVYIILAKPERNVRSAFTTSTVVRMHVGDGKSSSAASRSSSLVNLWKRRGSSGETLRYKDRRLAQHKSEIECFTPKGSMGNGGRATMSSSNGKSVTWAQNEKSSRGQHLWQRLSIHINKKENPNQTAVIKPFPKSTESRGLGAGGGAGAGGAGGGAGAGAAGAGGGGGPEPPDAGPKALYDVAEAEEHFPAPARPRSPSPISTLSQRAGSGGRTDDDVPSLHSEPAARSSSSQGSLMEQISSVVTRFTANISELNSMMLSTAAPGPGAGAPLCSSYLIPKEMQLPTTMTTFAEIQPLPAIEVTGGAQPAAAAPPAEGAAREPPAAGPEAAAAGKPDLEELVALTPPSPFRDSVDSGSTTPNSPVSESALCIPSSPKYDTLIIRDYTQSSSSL
In words: Inhibition of [3H]-MPEP bond in the mGluR5 receptor bond assay (pig brain homogenate). Format: binding. As to conditions: 450 μg protein from pig brain homogenate, 5 nM [3H]-MPEP, 60 min, room temperature. The procedure:
Substituted propiolic acid amides of the above-mentioned general formula I are likewise particularly preferred, which, after 60 minutes of incubation in 450 μg protein from pig brain homogenate at a temperature between 20° C. and 25° C. in a concentration of less than 2000 nM, preferably of less than 1000 nM, particularly preferably of less than 700 nM, very particularly preferably of less than 100 nM, even more preferably of less than 30 nM, bring about a 50-percent displacement of [^3H]-2-methyl-6-(3-methoxyphenyl)-ethynylpyridine which is present in a concentration of 5 nM.
Thereby, the determination of the displacement of [^3H]-2-methyl-6-(3-methoxyphenyl)-ethynylpyridine is performed as described in the section Pharmacological Methods, I. Method for determining the inhibition of [^3H]-MPEP-bonding in the mGluR5 receptor bonding assay.
I. Method for Determining the Inhibition of the [^3H]-MPEP Bond in the mGluR5 Receptor Bond Assay
Pig brain homogenate is produced by homogenisation (Polytron PT 3000, Kinematica AG, 10,000 rpm for 90 seconds) of pig brain halves without medulla, cerebellum and pons in buffer pH 8.0 (30 mM Hepes, Sigma, order no. H3375+1 tablet complete to 100 ml, Roche Diagnostics, order no. 1836145) in ratio 1:20 (brain weight/volume) and differential centrifugation at 900×g and 40,000×g. In each case, 450 μg protein from brain homogenate is incubated with 5 nM ^3[H]-MPEP (Tocris, order no. R1212) (MPEP=2-methyl-6-(3-methoxyphenyl)-ethynylpyridine) in 250 μl incubation batches in 96 well microtitration plates and the compounds to be tested (10 μM in the test) in buffer (as above) at room temperature for 60 min.
Thereafter, the batches are filtered with the help of a Brandel Cell Harvester (Brandel, TYP Robotic 9600) on unifilter plates with glass fibre filter mats (Perkin Elmer, order no. 6005177) and subsequently washed with buffer (as above) 3 times with in each case 250 μl per sample. The filter plates are subsequently dried for 60 min at 55° C. 30 μL Ultima Gold™ scintillator is subsequently added per well (Packard BioScience, order no. 6013159) and the samples are measured after 3 hours on the β-counter (Mikrobeta, Perkin Elmer). The unspecific bond is determined by addition of 10 μM MPEP (Tocris, order no. 1212).
The term pIC50 denotes the IC50 on a negative log10 scale, so that one unit is a factor of ten. Read a low pIC50 as a high IC50. `O=C(C#Cc1ccccc1)N1CCN(c2ccsc2)CC1` [Example 1, 1-(3-phenyl-propiolyl)-4-(thiophene-3-yl)-piperazine hydrochloride] showed a pIC50 of 5.72.
Regarding `O=C(C#Cc1ccccc1)N1CCN(c2cscn2)CC1` [Example 2, 1-(3-Phenyl-propiolyl)-4-(thiazol-4-yl)-piperazine], the pIC50 is 6.20.
For `Cn1ccnc1N1CCN(C(=O)C#Cc2ccccc2)CC1` [Example 3, 1-(3-phenyl-propiolyl)-4-(1-methyl-imidazol-2-yl)-piperazine hydrochloride], the pIC50 is 5.32.
`C[C@@H]1CN(c2cscn2)CCN1C(=O)C#Cc1cccc(Cl)c1` [Example 4, (R)-2-methyl-1-(3-(3-chloro-phenyl)-propiolyl)-4-(thiazol-4-yl)-piperazine]: the pIC50 is 7.80. Compared with the last compound, the pIC50 is 2.48 log units higher.
`CC1CN(c2nncs2)CCN1C(=O)C#Cc1cccc(Cl)c1` (stereo not drawn) [Example 5, 2-methyl 1-(3-(3-chloro-phenyl)-propiolyl)-4-(1,3,4-thiadiazol-2-yl)-piperazine]: the pIC50 was 7.57.
In turn, `CN(CCNC(=O)C#Cc1cccc(Cl)c1)c1nncs1` [Example 6, 3-(3-chlorophenyl)-N-(2-(methyl(1,3,4-thiadiazol-2-yl)amino)ethyl)propiolamide] showed a pIC50 of 7.68.
The same measure, in the same setting: under `CN(CCNC(=O)C#Cc1cccc(Cl)c1)c1cncs1` [Example 7, 3-(3-chlorophenyl)-N-(2-(methyl(thiazol-5-yl)amino)ethyl)propiolamide] stands 9.30; under `CN(CCNC(=O)C#Cc1cccc(Cl)c1)c1nccn1C` [Example 8, 3-(3-chlorophenyl)-N-(2-(methyl(1-methyl-1H-imidazol-2-yl)amino)ethyl)propiolamide], 6.46.

Tested on in the next experiment: not listed separately
The experiment can be described thus: Formaline test in rats (phase 2, chronic pain component). It is filed as in vivo. The note with it: phase 2 (21 to 27 min after formaline injection). The procedure: III. Formaline Test in Rats: The formaline test (Dubuisson, D. and Dennis, S. G., 1977, Pain, 4, 161-174) represents a model for acute and chronic pain. A biphasic nociceptive reaction, which is recorded by observation of three clearly differentiable behavioural patterns, is induced by a single formaline injection into the dorsal side of a rear paw in freely mobile test animals. The reaction has two phases: Phase 1=Immediate reaction (duration up to 10 min; paw shaking, licking), Phase 2=Late reaction (after a rest phase; likewise, paw shaking, licking; duration up to 60 min). The 1st phase reflects a direct stimulation of the peripheral nocisensors with high spinal nociceptive input or glutamate release (acute pain phase); the 2nd phase reflects a spinal and peripheral hypersensitisation (chronic pain phase). In the investigations presented here, the chronic pain component (phase 2) was evaluated. Formaline with a volume of 50 μl and a concentration of 5% is administered subcutaneously into the dorsal side of the right rear paw of each animal. The substances to be tested are administered for 30 min before the formaline injection orally (p.o.), intravenously (i.v.) or intraperitoneally (i.p.). […]
As for `C[C@@H]1CN(c2cscn2)CCN1C(=O)C#Cc1cccc(Cl)c1` [Example 4, (R)-2-methyl-1-(3-(3-chloro-phenyl)-propiolyl)-4-(thiazol-4-yl)-piperazine], the “Formaline test (rat) i.v. Reduction in nociceptive behaviour over control at 10 mg/kg” value worked out at 75%.

The record behind these values is US8008304B2, “Substituted propiolic acid amides and their use for producing drugs” (Grüenthal GmbH, priority 2005, dated 2011).
